Reference: PMC8205226, “HIV-1 Integrase Inhibitors with Modifications That Affect Their Potencies against Drug Resistant Integrase Mutants” (ACS Infectious Diseases, 2021)
Read-outs that look alike come from different tables or passages of the source.

Experiments:
HIV-1 IN mutant P142A = assay: single-round infectivity assay, P142A IN mutant; assay type: cell-based
Method: (§1) Figure 4 Mutations in the β5-α3 loop affect the antiviral potencies of the new compounds. The EC50 values were determined using a vector that carries the IN mutant in a single round infection assay. […] Error bars represent the standard deviations of independent experiments, n = 4, performed in triplicate.
(§2) WT and mutant HIV-1 viral vectors were used in single-round infectivity assays to determine the antiviral potencies (EC50 values) of the compounds and the effects of the mutants on the EC50 values as previously described.[30],[54] Single round infectivity measurements were determined as done previously.[38]
(§3) The vector pNLNgoMIVR-ΔENV.LUC has been described previously.[26] To produce the new IN mutants used in this study, the IN open reading frame was removed from pNLNgoMIVR-ΔENV.LUC by digestion with KpnI and SalI, and the resulting fragment was inserted between the KpnI and SalI sites of pBluescript KS+. Using that construct as the wild-type template, we prepared the following HIV-1 IN mutants using the QuikChange II XL site directed mutagenesis kit (Agilent Technologies, Santa Clara, CA) protocol: N117A, N117H, P142A, P142H, P142S, Y143C, Y143H, S230R, R231G, and R231K. The following sense oligonucleotides were used with matching cognate antisense oligonucleotides (not shown) (Integrated DNA Technologies, Coralville, IA) in the mutagenesis: N117A, 5′-[…]-3′; N117H, 5′-[…]-3′; P142A, 5′-[…]-3′; P142H, 5′-[…]-3′; P142S, 5′-[…]-3′; Y143C, 5′- […]-3′; Y143H, 5′-[…]-3′; S230R, 5′- […]-3′; R231G, 5′-[…]-3′; R231K, 5′-[…]-3′.

[1] = test system: HIV-1 IN double mutant G140S/Q148H; conditions: single round infection; previously reported; cited from earlier work
HIV-1 IN mutant R231K = assay: single-round infectivity assay, R231K IN mutant; assay type: cell-based
Method: as §1, with “5 Antiviral” for “4 Mutations in the β5-α3 loop affect the antiviral”, “compounds against IN with mutations in the […].” for “compounds.”
as §2, §3

HIV-1 IN mutant S230R = assay: single-round infectivity assay, S230R IN mutant; assay type: cell-based
Method: as §1, with “5 Antiviral” for “4 Mutations in the β5-α3 loop affect the antiviral”, “compounds against IN with mutations in the […].” for “compounds.”
as §2, §3

HIV-1 IN mutant P142S = assay: single-round infectivity assay, P142S IN mutant; assay type: cell-based
Method: as §1, §2, §3

HIV-1 IN mutant G118R [2] = assay: single-round infectivity assay, G118R IN mutant; assay type: cell-based
Method: (§4) The EC50 values were determined using a vector that carries the IN mutant in a single round infection assay. […] Error bars represent the standard deviations of independent experiments, n = 4, performed in triplicate.
as §2, §3

[3] = test system: HIV-1 IN double mutant G140S/Q148H; assay: single-round infectivity assay, G140S/Q148H IN double mutant; assay type: cell-based; conditions: EC50 compound / EC50 DTG
Method: (§5) Figure 2 Antiviral activities of the new compounds against RAL-resistant mutants. The EC50 values were determined using a vector that carries WT HIV-1 IN and the RAL-resistant mutants in a single round infection assay. […] Error bars represent the standard deviations of independent experiments, n = 4, performed in triplicate. The graph has a maximum value of 550 nM.
as §2, §3

HIV-1 IN mutant P142H = assay: single-round infectivity assay, P142H IN mutant; assay type: cell-based
Method: as §4
Single round infectivity measurements were determined as done previously.[38]
as §3

HIV-1 IN mutant Y143R = assay: single-round infectivity assay, Y143R IN mutant; assay type: cell-based; conditions: EC50 compound / EC50 DTG
Method: as §5, §2, §3

HIV-1 IN mutant Y143H = assay: single-round infectivity assay, Y143H IN mutant; assay type: cell-based
Method: as §1, §2, §3

HIV-1 IN mutant S119R = assay: single-round infectivity assay, S119R IN mutant; assay type: cell-based
Method: as §4, §2, §3

HIV-1 IN mutant N117H = assay: single-round infectivity assay, N117H IN mutant; assay type: cell-based
Method: as §4, §2, §3

WT HIV-1 = conditions: vector carrying WT HIV-1 IN, single round infection; previously reported; cited from earlier work
HIV-1 IN mutant N117A = assay: single-round infectivity assay, N117A IN mutant; assay type: cell-based
Method: as §4, §2, §3

HIV-1 IN mutant Y143C = assay: single-round infectivity assay, Y143C IN mutant; assay type: cell-based
Method: as §1, §2, §3

HIV-1 IN mutant R231G = assay: single-round infectivity assay, R231G IN mutant; assay type: cell-based
Method: as §4, with “Figure 5 Antiviral potencies of the new compounds against IN with mutations in the […]. The” for “The”
as §2, §3

HIV-1 IN mutant N155H = assay: single-round infectivity assay, N155H IN mutant; assay type: cell-based; conditions: EC50 compound / EC50 DTG
Method: as §5, §2, §3

HIV-1 IN mutant G118R [4] = conditions: single round infection; previously shown; cited from earlier work
[5] = fold change in EC50, IN mutant versus WT HIV-1

For `Nc1c(C(=O)NCc2ccc(F)cc2F)c(=O)n(O)c2ncc(CCS(=O)(=O)c3ccccc3)cc12` [4f], the “ratio of the EC50s (our compound relative to DTG) against P142A” value (HIV-1 IN mutant P142A; EC50 compound / EC50 DTG) was 1.1, the EC50 (HIV-1 IN mutant P142A; Human immunodeficiency virus 1, read-out: EC50 values P142A) was 2.8 ± 0.1 nM and the “FC P142A” value (HIV-1 IN mutant P142A; [5]) was 1.4. For the same compound, the EC50 [1] was 5.2 ± 0.3 nM, the “ratio of the EC50s (our compound relative to DTG) against R231K” value (HIV-1 IN mutant R231K; EC50 compound / EC50 DTG) was 0.8 and the EC50 (HIV-1 IN mutant R231K; Human immunodeficiency virus 1, read-out: EC50 values R231K, single round infection, n = 4) was 3.3 ± 0.2 nM. The EC50 (HIV-1 IN mutant R231K; read-out: EC50 values R231K, single round infection, n = 4) was less than 5 nM, the “ratio of the EC50s (our compound relative to DTG) against S230R” value (HIV-1 IN mutant S230R; EC50 compound / EC50 DTG) was 1.0 and the EC50 (HIV-1 IN mutant S230R; Human immunodeficiency virus 1, read-out: EC50 values S230R) was 4.8 ± 0.3 nM. For the same compound, the “FC S230R” value (HIV-1 IN mutant S230R; [5]) was 2.4, the “ratio of the EC50s (our compound relative to DTG) against P142S” value (HIV-1 IN mutant P142S; EC50 compound / EC50 DTG) was 0.7 and the EC50 (HIV-1 IN mutant P142S; Human immunodeficiency virus 1, read-out: EC50 values P142S) was 1.5 ± 0.3 nM. For the same compound, the “FC P142S” value (HIV-1 IN mutant P142S; [5]) was 0.8, the “ratio of the EC50s (our compound relative to DTG) against G118R” value (HIV-1 IN mutant G118R [2]; EC50 compound / EC50 DTG) was 0.9 and the “FC G118R” value (HIV-1 IN mutant G118R [2]; [5]) was 5.7. For the same compound, the “ratio of the EC50s (our compound relative to DTG) against G140S/Q148H” value [3] was 0.9, the “ratio of the EC50s (our compound relative to DTG) against P142H” value (HIV-1 IN mutant P142H; EC50 compound / EC50 DTG) was 0.6 and the EC50 (HIV-1 IN mutant P142H; Human immunodeficiency virus 1, read-out: EC50 values P142H) was 1.7 ± 0.2 nM. The “FC P142H” value (HIV-1 IN mutant P142H; [5]) was 0.9, the “ratio of the EC50s (our compound relative to DTG) against Y143R” value (HIV-1 IN mutant Y143R) was 0.1 and the “ratio of the EC50s (our compound relative to DTG) against Y143H” value (HIV-1 IN mutant Y143H; EC50 compound / EC50 DTG) was 1.0. For the same compound, the EC50 (HIV-1 IN mutant Y143H; Human immunodeficiency virus 1, read-out: EC50 values Y143H, single round infection, n = 4) was 2.3 ± 0.1 nM, the “FC Y143H” value (HIV-1 IN mutant Y143H; [5]) was 1.2 and the EC50 (HIV-1 IN mutant Y143H; read-out: EC50 values Y143H, single round infection, n = 4) was less than 3 nM. The “ratio of the EC50s (our compound relative to DTG) against S119R” value (HIV-1 IN mutant S119R; EC50 compound / EC50 DTG) was 1.1, the EC50 (HIV-1 IN mutant S119R; Human immunodeficiency virus 1, read-out: EC50 values S119R) was 2.6 ± 0.4 nM and the “FC S119R” value (HIV-1 IN mutant S119R; [5]) was 1.3. For the same compound, the “ratio of the EC50s (our compound relative to DTG) against N117H” value (HIV-1 IN mutant N117H; EC50 compound / EC50 DTG) was 1.1, the EC50 (HIV-1 IN mutant N117H; Human immunodeficiency virus 1, read-out: EC50 values N117H) was 2.7 nM and the “FC N117H” value (HIV-1 IN mutant N117H; [5]) was 1.4. The EC50 (WT HIV-1) was 2 ± 0.1 nM, the EC50 (HIV-1 IN mutant N117A; Human immunodeficiency virus 1, read-out: EC50 values N117A) was 0.8 nM and the “FC N117A” value (HIV-1 IN mutant N117A; [5]) was 0.4. For the same compound, the “ratio of the EC50s (our compound relative to DTG) against Y143C” value (HIV-1 IN mutant Y143C; EC50 compound / EC50 DTG) was 1.2, the EC50 (HIV-1 IN mutant Y143C; Human immunodeficiency virus 1, read-out: EC50 values Y143C, single round infection, n = 4) was 1.7 ± 0.4 nM and the “FC Y143C” value (HIV-1 IN mutant Y143C; [5]) was 0.9. For the same compound, the EC50 (HIV-1 IN mutant Y143C; read-out: EC50 values Y143C, single round infection, n = 4) was less than 3 nM, the “ratio of the EC50s (our compound relative to DTG) against R231G” value (HIV-1 IN mutant R231G; EC50 compound / EC50 DTG) was 1.4 and the EC50 (HIV-1 IN mutant R231G; Human immunodeficiency virus 1, read-out: EC50 values R231G) was 2 ± 0.2 nM. The “FC R231G” value (HIV-1 IN mutant R231G; [5]) was 1.0, the “ratio of the EC50s (our compound relative to DTG) against N155H” value (HIV-1 IN mutant N155H) was 0.6 and the EC50 (HIV-1 IN mutant G118R [4]) was 11.4 ± 3.5 nM.
